Measurements: patent US4761414A, “Substituted 1H-pyrimido[1,2-a-]-pyrido[3,4-e]pyrazine 6 oxides” (G. D. Searle & Co., priority 1986, dated 1988)
≈ marks a conversion by molar mass, not a printed value. Where two headings read alike, the source gives them in different places.

How the values were obtained:
[1] = test system: B. fragilis 23745; details: Bacteroides fragilis, 23745, in Mus musculus, po, 48 h, log CFU/ml liver homogenate, test compound
[2] = test system: B. fragilis WS-1; test: MIC/MBC against Bacteroides fragilis strain E; format: cell-based; details: for MBC: WS1, 99.9% reduction in viable count; for MIC: WS1, 48 h, 48 hours, 37° C., anaerobic
Experimental: The screening panel utilized in this Example consisted of 5 strains of Bacteroides fragilis. All assays were carried out in 96-well microtitre plates. If an isolate was obtained from either a culture collection or clinical source, the isolate was immediately inoculated into Wilkens-Chalgren broth (Oxoid) and incubated at 37° C. in an anaerobic chamber in an atmosphere of 85% nitrogen, 10% carbon dioxide, and 5% hydrogen for 48 hours. At the end of this time, the viable count was about 10^12 organisms/ml broth. A 1 ml aliquot of each culture was placed in an ampoule and quick frozen in acetone-dry ice mixture and stored in liquid nitrogen. When an inoculum was utilized in an assay, one of the ampoules was thawed and diluted with fresh broth to yield a suspension having a count of 5×10^5 organisms/ml. A 100 μl aliquot of this suspension was inoculated into each well of the microtitre plate. A 2 mg sample of the test compound was dissolved in 0.2 ml of a suitable solvent such as dimethylsulfoxide, polyethylene glycol 200 or methanol. […] After addition of the test solution the final inoculum level was 10^5 cells/ml. The plates were incubated for 48 hours at 37° C. in the anaerobic chamber. The Minimum Inhibitory Concentration (MIC) was read visually. The MIC is defined as the lowest concentration at which there is no detectable growth. The Minimum Bactericidal Concentration (MBC) was determined by taking 50 μl aliquot from each well and placing it in fresh medium. […] The strains of Bacteroides fragilis utilized in the above procedure are identified by letter in accordance with the following legend: |E B. fragilis WS-1*

[3] = test system: Campylobacter fetus ss. jejuni ATCC 29428; test: MIC vs panel of anaerobes; format: cell-based; details: ATCC29428, procedures of Example 40
[4] = test system: Clostridium perfringens NCTC 523; test: microbe, parasite or virus in culture; format: cell-based; details: Clostridium perfringens, NCTC523, Clostridium perfringens NCTC 523; procedures of Example 40
[5] = test system: Propionebacterium acnes NCTC 737; test: MIC vs panel of anaerobes; format: cell-based; details: procedures of Example 40
[6] = test system: Fusobacterium necrophorum ATCC 11295; test: MIC vs panel of anaerobes; format: cell-based; details: Fusobacterium necrophorum, ATCC11295, Fusobacterium necrophorum ATCC 11295; procedures of Example 40; read-out: MIC
[7] = test system: P. anaerobius; test: MIC vs panel of anaerobes; format: cell-based; details: Peptostreptococcus anaerobius, procedures of Example 40
[8] = test system: B. melanogenicus ATCC 15032; test: MIC vs panel of anaerobes; format: cell-based; details: procedures of Example 40
[9] = test system: Costridium difficile NCIB 10666; test: MIC vs panel of anaerobes; format: cell-based, C. difficile; details: Clostridioides difficile, NCIB10666, C. difficile NCIB 10666; procedures of Example 40; read-out: MIC
[10] = test system: Peptococcous magnus; test: MIC vs panel of anaerobes; format: cell-based; details: procedures of Example 40
[11] = read-out: DOSE GIVING 1 LOG REDUCTION (molar), p.o., after infection and twice daily for 2 days
[12] = read-out: DOSE GIVING 1 LOG REDUCTION, p.o., after infection and twice daily for 2 days

| SMILES | ED (1 log reduction) [1, 11] [µmol/kg] | ED (1 log reduction) [1, 12] [mg/kg] | MBC [2] [µg/mL] | MIC [2] [µg/mL] | MIC [3] [µg/mL] | MIC [4] [µg/mL] | MIC [5] [µg/mL] | MIC [6] [µg/mL] | MIC [7] [µg/mL] | MIC [8] [µg/mL] | MIC [9] [µg/mL] | MIC [10] [µg/mL] |
| --- | --- | --- | --- | --- | --- | --- | --- | --- | --- | --- | --- | --- |
| CC1(C)CN=C2C(c3ccc(F)cc3)=[N+]([O-])c3cnccc3N2C1 [Example 33, 2,3-Dihydro-2,2-dimethyl-5-(4-fluorophenyl)-1H-pyrimido[1,2-a]pyrido[3,4-e]pyrazine 6-oxide] | 2.85 | 0.9 | < 0.8 | < 0.8 |  |  |  |  |  |  |  |  |
| CC1(C)CN=C2C(c3ccc(F)cc3)=[N+]([O-])c3cccnc3N2C1 [Example 31, 2,3-Dihydro-2,2-dimethyl-5-(4-fluorophenyl)-1H-pyrimido[1,2-a]pyrido[3,2-e]pyrazine 6-oxide] | 3 | 1 | < 0.8 | < 0.8 | 100 (≈ 308 µM) | 3.1 (≈ 9.56 µM) | > 100 | 3.1 (≈ 9.56 µM) | 100 (≈ 308 µM) | > 100 | < 0.8 |  |
| [O-][N+]1=C(c2ccccc2)C2=NCC3(CCCCC3)CN2c2ncccc21 [Example 29, Spiro[cyclohexane-1,2'-[2,3]-dihydro-[5]-phenyl-[1H]pyrimido[1,2-a]pyrido[3,2-e]pyrazine [6]-oxide]] | 10.1 | 3.5 | < 0.8 | < 0.8 | 50 (≈ 144 µM) | 1.5 (≈ 4.33 µM) | > 100 | 6.2 (≈ 17.9 µM) | < 0.8 | 100 (≈ 289 µM) | < 0.8 | < 0.8 |
| CCC1(CC)CN=C2C(c3ccccc3)=[N+]([O-])c3cnccc3N2C1 [Example 25, 2,3-Dihydro-2,2-diethyl-5-phenyl-1H-pyrimido[1,2-a]pyrido[3,4-e]pyrazine 6-oxide] | 5.75 | 1.9 | < 0.8 | < 0.8 | 100 (≈ 299 µM) | 3.1 (≈ 9.27 µM) | > 100 | 31 (≈ 92.7 µM) | 100 (≈ 299 µM) | > 100 | 1.5 (≈ 4.49 µM) | 100 (≈ 299 µM) |
| CCCC1(C)CN=C2C(c3ccccc3)=[N+]([O-])c3cnccc3N2C1 (stereo not shown) [Example 27, 2,3-Dihydro-2-methyl-5-phenyl-2-propyl-1H-pyrimido[1,2-a]pyrido[3,4-e]pyrazine 6-oxide] | 7.4 | 2.5 | 3.1 (≈ 9.27 µM) | 1.5 (≈ 4.49 µM) |  |  |  |  |  |  |  |  |
| CCC1(C)CN=C2C(c3ccccc3)=[N+]([O-])c3cccnc3N2C1 (stereo not shown) [Example 24, 2,3-Dihydro-2-ethyl-2-methyl-5-phenyl-1H-pyrimido[1,2-a]pyrido[3,2-e]pyrazine 6-oxide] | 6.8 | 2.2 | < 0.8 | < 0.8 | 50 (≈ 156 µM) | 1.5 (≈ 4.68 µM) | 100 (≈ 312 µM) | < 0.8 | 100 (≈ 312 µM) | 100 (≈ 312 µM) | < 0.8 |  |
| CCC1(C)CN=C2C(c3ccccc3)=[N+]([O-])c3cnccc3N2C1 (stereo not shown) [Example 23, 2,3-Dihydro-2-ethyl-2-methyl-5-phenyl-1H-pyrimido[1,2-a]pyrido[3,4-e]pyrazine 6-oxide] | 6 | 1.9 | 3.1 (≈ 9.68 µM) | 1.5 (≈ 4.68 µM) | 100 (≈ 312 µM) | 1.5 (≈ 4.68 µM) | > 100 | < 0.8 | 100 (≈ 312 µM) | > 100 | 1.5 (≈ 4.68 µM) |  |
| CC1CN=C2C(c3ccccc3)=[N+]([O-])c3cnccc3N2C1 (stereo not shown) [Example 34, 2,3-Dihydro-2-methyl-5-phenyl-1H-pyrimido[1,2-a]pyrido[3,4-e]pyrazine 6-oxide] | 9.3 | 2.7 | < 0.8 | < 0.8 |  |  |  |  |  |  |  |  |
| CC1CN=C2C(c3ccccc3)=[N+]([O-])c3cccnc3N2C1 (stereo not shown) [Example 32, 2,3-Dihydro-2-methyl-5-phenyl-1H-pyrimido[1,2-a]pyrido[3,2-e]pyrazine 6-oxide] | 3.3 | 0.95 | < 0.8 | < 0.8 |  | < 0.8 |  | < 0.8 |  |  |  | < 0.8 |
| Cc1ccc(C2=[N+]([O-])c3cnccc3N3CC(C)(C)CN=C23)cc1 [Example 19, 2,3-Dihydro-2,2-dimethyl-5-(4-methylphenyl)-1H-pyrimido[1,2-a]pyrido[3,4-e]pyrazine 6-oxide] | 4.6 | 1.5 | 1.5 (≈ 4.68 µM) | 1.5 (≈ 4.68 µM) |  | 1.5 (≈ 4.68 µM) |  | < 0.8 |  |  |  | < 0.8 |
| COc1ccc(C2=[N+]([O-])c3cnccc3N3CC(C)(C)CN=C23)cc1OC [Example 21] | 6.8 | 2.5 | < 0.8 | < 0.8 |  |  |  |  |  |  |  |  |
| CCCC1(C)CN=C2C(c3ccccc3)=[N+]([O-])c3cccnc3N2C1 (stereo not shown) [Example 28, 2,3-Dihydro-2-methyl-5-phenyl-2-propyl-1H-pyrimido[1,2-a]pyrido[3,2-e]pyrazine 6-oxide] | 7.4 | 2.5 | 1.5 (≈ 4.49 µM) | < 0.8 |  |  |  |  |  |  |  |  |
| CCC1(CC)CN=C2C(c3ccccc3)=[N+]([O-])c3cccnc3N2C1 [Example 26, 2,3-Dihydro-2,2-diethyl-5-phenyl-1H-pyrimido[1,2-a]pyrido[3,2-e]pyrazine 6-oxide] | 10.1 | 3.4 | < 0.8 | < 0.8 | 50 (≈ 150 µM) | 1.5 (≈ 4.49 µM) | 100 (≈ 299 µM) | 1.5 (≈ 4.49 µM) | 50 (≈ 150 µM) | 100 (≈ 299 µM) | < 0.8 | 12.5 (≈ 37.4 µM) |
| [O-][N+]1=C(c2ccccc2)C2=NCC3(CCCCC3)CN2c2ccncc21 [Example 30, Spiro[cyclohexane-1,2'-[2,3]-dihydro-[5]-phenyl-[1H]pyrimido[1,2-a]pyrido[3,4-e]pyrazine [6]-oxide]] |  |  | < 0.8 | < 0.8 | 100 (≈ 289 µM) | 6.2 (≈ 17.9 µM) | > 100 | 3.1 (≈ 8.95 µM) | 100 (≈ 289 µM) | > 100 | < 0.8 |  |
